In this assay the target is SARS-CoV-2 3CL^pro (Severe acute respiratory syndrome coronavirus 2, UniProt P0DTD1). Nature of the assay: SARS-CoV-2 3CLpro enzyme inhibition assay (fluorophore-quencher peptide substrate). The assay is classed as biochemical. As to conditions: for IC50: 200 nM 3CLpro, 20 min preincubation, 30 min at 25°C, triplicate. The protocol:
Fluorescence intensity was measured on a microplate reader (λex = 485 nm; λem = 528 nm). Experiment was performed in triplicate.

What is called IC50 is the concentration that gives 50% inhibition. A low value points to inhibition by little substance.

With `O=C(N[C@@H](c1cccc(F)c1)C(F)(F)F)[C@@H](c1cnccn1)N(C(=O)c1ccco1)c1ccc(C2CCCCC2)cc1` [Hit 1], the IC50 was 17 ± 3 nM. For the same compound, the “inhibition activity, times stronger than that of ML300” value (ratio of IC50 values vs ML300) is listed as “about 236 times”.

`O=C(NCc1c(F)c(F)c(F)c(F)c1F)[C@@H](c1cccnc1)N(C(=O)c1ccno1)c1ccc(-c2cccs2)cc1` [Hit 2] came in with an IC50 of 830 ± 110 nM.

In turn, `C[C@H](NC(=O)[C@@H](c1cccnc1)N(C(=O)c1ccno1)c1ccc(C2CCCCC2)cc1)c1cccc(F)c1F` [Hit 3] yielded an IC50 of 90 ± 20 nM.

The compound `O=C(NCc1ccccc1)[C@@H](c1cccnc1)N(C(=O)c1ccco1)c1ccc(-c2cccs2)cc1` [Hit 4] registered an IC50 of 750 ± 40 nM.

As for `O=C(Nc1ccc(N(Cc2ccsc2)C(=O)Cn2nnc3ccccc32)cc1)C1CC1` [ML300, reference compound], the IC50 is 4010 ± 660 nM.

(Values after article PMC9715617 (Frontiers in Pharmacology, 2022).)
